This passage reports IC50 results from patent US11339136B2 (Novartis AG, priority 2016, dated 2022).

The test has as its target T1, hNLRP3 (Homo sapiens, UniProt Q96P20).
T1 construct: THP-1 cells were purchased from the American Type Culture Collection; host or cells: THP-1 cells, PMA-differentiated
Kind of test: IL-1β production in PMA-differentiated THP-1 cells stimulated with gramicidin. The conditions noted are these: gramicidin 5 μM, IL-1β in supernatant. It is filed as cell-based. The method, then:
Bioassay: IL-1β Production in PMA-Differentiated THP-1 Cells Stimulated with Gramicidin. Procedure 1:
Cell culture—THP-1 cells were purchased from the American Type Culture Collection and sub-cultured according to instructions from the supplier. Prior to experiments, cells were cultured in RPMI 1640 containing 10% heat inactivated FBS, penicillin (100 units/ml) and streptomycin (100 μg/ml), and maintained in log phase prior to experimental setup. Prior to the experiment THP-1 were treated with PMA (Phorbol 12-myristate 13-acetate) (10 μg/ml) for 24 hours. The day of the experiment the media was removed and attaching cells were treated with trypsin for 2 minutes, cells were then collected, washed with PBS (phosphate buffer saline), spin down, resuspended in 2% heat inactivated FBS with RPMI at a concentration of 1×10^6 cells/ml, and 100 ul was plated in a 96 well plate. Cells were incubated with compounds for 1 hours and then stimulated with Gramicidin (5 μM) (Enzo) for 2 hours. Cell free supernatant was collected and the production of IL-1β was evaluated by ELISA. Compounds were dissolved in dimethyl sulfoxide (DMSO) and added to the culture medium to achieve desired concentration (e.g. 100, 30, 10, 3, 1, 0.3 or 0.1 μM). A vehicle only control was run concurrently with each experiment. Final DMSO concentration was 1%.
THP-1 cells were purchased from the American Type Culture Collection and sub-cultured according to instructions from the supplier. Prior to experiments, cells were cultured in complete RPMI 1640 (containing 10% heat inactivated FBS, penicillin (100 units/ml) and streptomycin (100 μg/ml)), and maintained in log phase prior to experimental setup. Prior to the experiment THP-1 were treated with PMA (Phorbol 12-myristate 13-acetate) (20 ng/ml) for 16-18 hours. On the day of the experiment the media was removed and adherent cells were detached with trypsin for 5 minutes. Cells were then harvested, washed with complete RPMI 1640, spun down, resuspended in RPMI 1640 (containing 2% heat inactivated FBS, penicillin (100 units/ml) and streptomycin (100 μg/ml). The cells were plated in a 384-well plate at a density of 50,000 cells/well (final assay volume 50 μl). Compounds were dissolved in dimethyl sulfoxide (DMSO) and added to the culture medium to achieve desired concentration (e.g. 100, 33, 11, 3.7, 1.2, 0.41, 0.14, 0.046, 0.015, 0.0051, 0.0017 μM). Cells were incubated with compounds for 1 hour and then stimulated with gramicidin (5 μM) (Enzo) for 2 hours. Cell free supernatant was collected and the production of IL-1β was evaluated by HTRF (cisbio). A vehicle only control was run concurrently with each experiment. Final DMSO concentration was 0.38%.

For orientation: IC50 means the point on the concentration scale where inhibition reaches its midpoint. Read a low IC50 as greater potency in that assay.

T1 sequence (Q96P20 whole entry): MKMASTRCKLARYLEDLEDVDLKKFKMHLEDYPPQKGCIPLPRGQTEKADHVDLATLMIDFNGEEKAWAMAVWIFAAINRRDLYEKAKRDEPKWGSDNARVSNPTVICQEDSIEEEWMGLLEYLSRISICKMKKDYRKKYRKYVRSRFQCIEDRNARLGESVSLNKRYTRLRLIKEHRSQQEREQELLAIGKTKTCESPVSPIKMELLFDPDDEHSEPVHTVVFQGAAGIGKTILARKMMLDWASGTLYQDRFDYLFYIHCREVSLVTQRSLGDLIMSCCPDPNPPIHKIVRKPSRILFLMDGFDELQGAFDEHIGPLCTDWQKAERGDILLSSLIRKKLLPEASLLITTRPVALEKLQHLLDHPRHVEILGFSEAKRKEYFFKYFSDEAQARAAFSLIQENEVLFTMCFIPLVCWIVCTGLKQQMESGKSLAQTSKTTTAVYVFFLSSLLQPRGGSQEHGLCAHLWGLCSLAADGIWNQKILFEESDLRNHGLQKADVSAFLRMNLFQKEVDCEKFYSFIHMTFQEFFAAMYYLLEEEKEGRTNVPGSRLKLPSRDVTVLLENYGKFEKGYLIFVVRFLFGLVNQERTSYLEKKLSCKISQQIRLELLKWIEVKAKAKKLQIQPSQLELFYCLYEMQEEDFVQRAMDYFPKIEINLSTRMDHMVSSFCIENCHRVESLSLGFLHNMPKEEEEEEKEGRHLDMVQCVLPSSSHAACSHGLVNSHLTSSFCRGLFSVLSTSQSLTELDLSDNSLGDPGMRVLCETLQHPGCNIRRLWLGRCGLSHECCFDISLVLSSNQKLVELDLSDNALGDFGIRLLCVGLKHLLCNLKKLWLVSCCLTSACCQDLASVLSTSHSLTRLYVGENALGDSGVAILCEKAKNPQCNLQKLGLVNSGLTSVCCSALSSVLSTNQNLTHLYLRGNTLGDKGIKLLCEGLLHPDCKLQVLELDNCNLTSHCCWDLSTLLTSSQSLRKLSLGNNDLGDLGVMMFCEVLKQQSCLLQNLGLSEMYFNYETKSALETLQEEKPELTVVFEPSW

Turning to `CC(C)c1cc(C#N)cc(C(C)C)c1NC(=O)NS(=O)(=O)c1cc(C(C)(C)O)co1` [Compound 104, N-(4-cyano-2,6-diisopropylphenyl-carbamoyl)-4-(2-hydroxypropan-2-yl)furan-2-sulfonamide], the IC50 (Table 1) is below 1 µM. On the same count and under the same terms, with `CC(C)(O)c1coc(S(=O)(=O)NC(=O)Nc2c3c(c(C#N)c4c2CCC4)CCC3)c1` [Compound 105, N-(8-cyano-1,2,3,5,6,7-hexahydros-indacen-4-ylcarbamoyl)-4-(2-hydroxypropan-2-yl)furan-2-sulfonamide] the figure was below 1 µM; with `CC(C)c1cc(F)cc(C(C)C)c1NC(=O)NS(=O)(=O)c1cc(C(C)(C)O)co1` [Compound 115, N-(4-fluoro-2,6-diisopropylphenyl-carbamoyl)-4-(2-hydroxypropan-2-yl)furan-2-sulfonamide], below 1 µM; with `CC(C)c1cc(C(N)=O)cc(C(C)C)c1NC(=O)NS(=O)(=O)c1cc(C(C)(C)O)co1` [Compound 116, 4-(3-(4-(2-hydroxypropan-2-yl)furan-2-ylsulfonyl)ureido)-3,5-diisopropylbenz-amide], 15 to 35 µM. `CC(C)c1cncc(C(C)C)c1NC(=O)NS(=O)(=O)c1ncc(C(C)(C)O)s1` [Compound 138]: the IC50 (Table 2) lay within 1 to 5 µM.

`CC(C)c1cc(F)cc(C(C)C)c1NC(=O)NS(=O)(=O)c1ncc(C(C)(C)O)s1` [Compound 139, N-(4-fluoro-2,6-diisopropylphenyl-carbamoyl)-5-(2-hydroxypropan-2-yl)thiazole-2-sulfonamide] had an IC50 (Table 2) below 1 µM. For the setting “Table 2”, `CC(C)c1ccc(Cl)c(C(C)C)c1NC(=O)NS(=O)(=O)c1nc(C(C)(C)O)cs1` [Compound 144, N-(3-chloro-2,6-diisopropylphenylcarbamoyl)-4-(2-hydroxypropan-2-yl) thiazole-2-sulfonamide] displayed an IC50 of 1 to 5 µM. Same read-out and setting: in the case of `CC(C)c1ccc(F)c(C(C)C)c1NC(=O)NS(=O)(=O)c1nc(C(C)(C)O)cs1` [Compound 145, N-(3-fluoro-2,6-diisopropylphenylcarbamoyl)-4-(2-hydroxypropan-2-yl)thiazole-2-sulfonamide] it was 1 to 5 µM; in that of `CC(C)c1cc(C#N)cc(C(C)C)c1NC(=O)NS(=O)(=O)c1nc(C(C)(C)O)cs1` [Compound 146, N-(4-cyano-2,6-diisopropylphenylcarbamoyl)-4-(2-hydroxypropan-2-yl)thiazole-2-sulfonamide], 1 to 5 µM. On the same count and under the same terms, with `CC(C)c1cc(Cl)cc(C(C)C)c1NC(=O)NS(=O)(=O)c1nc(C(C)(C)O)cs1` [Compound 147, N-(4-chloro-2,6-diisopropylphenylcarbamoyl)-4-(2-hydroxypropan-2-yl)thiazole-2-sulfonamide] the figure was 1 to 5 µM; with `CC(C)c1cc(F)cc(C(C)C)c1NC(=O)NS(=O)(=O)c1nc(C(C)(C)O)cs1` [Compound 148, N-(4-fluoro-2,6-diisopropylphenylcarbamoyl)-4-(2-hydroxypropan-2-yl) thiazole-2-sulfonamide], 1 to 5 µM; with `Cc1nc(S(=O)(=O)NC(=O)Nc2c(C(C)C)ccc(Cl)c2C(C)C)sc1C(C)(C)O` [Compound 149, N-(3-chloro-2,6-diisopropylphenylcarbamoyl)-5-(2-hydroxypropan-2-yl)-4-methylthiazole-2-sulfonamide], 15 to 35 µM. On the same count and under the same terms, in the case of `Cc1nc(S(=O)(=O)NC(=O)Nc2c(C(C)C)ccc(F)c2C(C)C)sc1C(C)(C)O` [Compound 150, N-(3-fluoro-2,6-diisopropylphenylcarbamoyl)-5-(2-hydroxypropan-2-yl)-4-methylthiazole-2-sulfonamide] it was below 1 µM. As to `Cc1nc(S(=O)(=O)NC(=O)Nc2c(C(C)C)cc(Cl)cc2C(C)C)sc1C(C)(C)O` [Compound 151, N-(4-chloro-2,6-diisopropylphenylcarbamoyl)-5-(2-hydroxypropan-2-yl)-4-methylthiazole-2-sulfonamide], the IC50 (Table 2) fell in the range of 1 to 5 µM. The same measure, in the same setting: with `Cc1nc(S(=O)(=O)NC(=O)Nc2c(C(C)C)cc(F)cc2C(C)C)sc1C(C)(C)O` [Compound 152, N-(4-fluoro-2,6-diisopropylphenylcarbamoyl)-5-(2-hydroxypropan-2-yl)-4-methylthiazole-2-sulfonamide] the figure was 5 to 15 µM. On the same count and under the same terms, in the case of `Cc1sc(S(=O)(=O)NC(=O)Nc2c(C(C)C)ccc(Cl)c2C(C)C)cc1C(C)(C)O` [Compound 153, N-(3-chloro-2,6-diisopropylphenyl-carbamoyl)-4-(2-hydroxypropan-2-yl)-5-methylthiophene-2-sulfonamide] it was 5 to 15 µM; in that of `Cc1sc(S(=O)(=O)NC(=O)Nc2c(C(C)C)ccc(F)c2C(C)C)cc1C(C)(C)O` [Compound 154, N-(3-fluoro-2,6-diisopropylphenylcarbamoyl)-4-(2-hydroxypropan-2-yl)-5-methylthiophene-2-sulfonamide], 1 to 5 µM; in that of `Cc1nc(S(=O)(=O)NC(=O)Nc2c(C(C)C)cc(C#N)cc2C(C)C)sc1C(C)(C)O` [Compound 155], 5 to 15 µM.

Where the note is “Table 2”, `Cc1sc(S(=O)(=O)NC(=O)Nc2c(C(C)C)cc(Cl)cc2C(C)C)cc1C(C)(C)O` [Compound 156, N-(4-chloro-2,6-diisopropylphenyl-carbamoyl)-4-(2-hydroxypropan-2-yl)-5-methylthiophene-2-sulfonamide] returned an IC50 below 1 µM.

`Cc1sc(S(=O)(=O)NC(=O)Nc2c(C(C)C)cc(F)cc2C(C)C)cc1C(C)(C)O` [Compound 157, N-(4-fluoro-2,6-diisopropylphenyl-carbamoyl)-4-(2-hydroxypropan-2-yl)-5-methylthiophene-2-sulfonamide]: the IC50 (Table 2) is below 1 µM.

For the compound `CCc1cc(C#N)cc(CC)c1NC(=O)NS(=O)(=O)c1ncc(C(C)(C)O)s1` [Compound 158, N-(4-cyano-2,6-diethylphenylcarbamoyl)-5-(2-hydroxypropan-2-yl)thiazole-2-sulfonamide], the IC50 (Table 2) fell in the range of 1 to 5 µM. Still for that read-out and setting: with `CCc1cc(C#N)cc(CC)c1NC(=O)NS(=O)(=O)c1cc(C(C)(C)O)cs1` [Compound 159, N-(4-cyano-2,6-diethylphenylcarbamoyl)-4-(2-hydroxypropan-2-yl)thiophene-2-sulfonamide] the figure was 1 to 5 µM; with `CCc1cc(F)cc(CC)c1NC(=O)NS(=O)(=O)c1cc(C(C)(C)O)cs1` [Compound 161, N-(2,6-diethyl-4-fluorophenylcarbamoyl)-4-(2-hydroxypropan-2-yl)thiophene-2-sulfonamide], 1 to 5 µM; with `Cc1sc(S(=O)(=O)NC(=O)Nc2c(C(C)C)cc(C#N)cc2C(C)C)cc1C(C)(C)O` [Compound 162, N-(4-cyano-2,6-diisopropylphenyl-carbamoyl)-4-(2-hydroxypropan-2-yl)-5-methylthiophene-2-sulfonamide], below 1 µM. On the same count and under the same terms, in the case of `CCc1ccc2c(c1NC(=O)NS(=O)(=O)c1ncc(C(C)(C)O)s1)CCC2` [Compound 165, N-(5-ethyl-2,3-dihydro-1H-inden-4-ylcarbamoyl)-5-(2-hydroxypropan-2-yl) thiazole-2-sulfonamide] it was 1 to 5 µM. `CCc1ccc2c(c1NC(=O)NS(=O)(=O)c1cc(C(C)(C)O)cs1)CCC2` [Compound 166, N-(5-ethyl-2,3-dihydro-1H-inden-4-ylcarbamoyl)-4-(2-hydroxypropan-2-yl)thiophene-2-sulfonamide]: under “Table 2”, the IC50 fell in the range of 1 to 5 µM. `CC(C)c1ccc(F)c(C(C)C)c1NC(=O)NS(=O)(=O)c1ncc(C2(O)CCCCC2)s1` [Compound 167, N-(3-fluoro-2,6-diisopropylphenylcarbamoyl)-5-(1-hydroxycyclohexyl) thiazole-2-sulfonamide]: the IC50 (Table 2) was in the range of 5 to 15 µM. The same measure, in the same setting: with `CC(C)c1ccc(F)c(C(C)C)c1NC(=O)NS(=O)(=O)c1ncc(C2(O)CCCC2)s1` [Compound 168, N-(3-fluoro-2,6-diisopropylphenylcarbamoyl)-5-(1-hydroxycyclopentyl) thiazole-2-sulfonamide] the figure was 5 to 15 µM; with `CC(C)c1ccc(F)c(C(C)C)c1NC(=O)NS(=O)(=O)c1ncc(C2(O)CCC2)s1` [Compound 169, N-(3-fluoro-2,6-diisopropylphenylcarbamoyl)-5-(1-hydroxycyclobutyl) thiazole-2-sulfonamide], 5 to 15 µM; with `CCc1cc(Cl)cc(CC)c1NC(=O)NS(=O)(=O)c1ncc(C(C)(C)O)s1` [Compound 170, N-(4-chloro-2,6-diethylphenylcarbamoyl)-5-(2-hydroxypropan-2-yl) thiazole-2-sulfonamide], 5 to 15 µM.
